Experimental data reported in US12533403B2, “Peptide conjugated particles” (NORTHWESTERN UNIVERSITY, priority 2013, dated 2026).
Entries after “also recorded” stand apart in the source; their conditions may differ. No end group written: not given here.

Columns and labels:
[1] = test system: spontaneous Type 1 diabetes; test: Spontaneous type 1 diabetes in NOD mice; assay type: in vivo; details: iv at 6, 8, and 10 weeks of age; diabetes = blood glucose >250 mg/dL
Method: NOD mice were treated with either BSA (N=22) or insulin (N=23) coupled PLG particles via intravenous administration at 6, 8, and 10 weeks of age. The mice were then assayed for the development of diabetes which was defined as blood glucose >250 mg/dL.

[2] = test system: cervical spinal cord of R-EAE mice; test: Spinal cord histology and in vivo imaging in EAE
Method: An additional therapeutic tolerance strategy was performed by delivering PLP139-151-PLG or OVA323-339 PLG to mice. […] Mice were treated with PLP-PLG or OVA323-339-PLG and the tissue was retrieved at day 40. The cervical spinal cord was isolated and sectioned to investigate the immune response within the CNS, which underlies the pathology of R-EAE and multiple sclerosis.
Animals were treated with Complete Freund's Adjuvant (CFA), OVA323-339 PLG particles, or PLP139-151-PLG particles. The clinical scores and percent incidence of EAE were determined (FIG. 10B) and the spinal cords observed via in vivo imaging (FIGS. 10A and 11). […] The bar graphs give the numerical numbers to the signal strength shown in the brain and SC scans.

[3] = test system: Relapsing Experimental Autoimmune Encephalitis (R-EAE); test: Prophylactic tolerance induction in PLP139-151/CFA-induced R-EAE; assay type: in vivo, SJL/J mice; details: for clinical score (disease induction): 500 nm particles given on day −7 relative to immunization, N=5
Th1 and Th17 responses = test: Induction of antigen-specific Th1 and Th17 responses (draining lymph node cells); assay type: in vivo, BALB/c mice; details: particles iv Day −7; measured at Day 10
Method: To determine whether administration of antigen-coupled particles inhibit induction of T-helper cells, either MOG35-55-PLG or OVA323-339-PLG particles were administered intravenously to BALB/c mice at Day −7. On Day 0, OVA323-339-PLG particles and Complete Freund's Adjuvant (CFA) were administered subcutaneously to the mice. The animals were re-stimulated with either MOG35-55-PLG or OVA323-339-PLG particles on Day 10 and the draining lymph node cells were isolated. The CPM and levels of IL-17, GM-CSF, IFN-γ, IL-10, and IL-4 were measured at Day 10.

[4] = test system: Relapsing Experimental Autoimmune Encephalitis (R-EAE); test: Treatment of R-EAE at day 10 by different routes of administration; assay type: in vivo, mice
Method: Experiments were conducted during development of embodiments of the present invention to investigate the ability of the PLG-PLP139-151 particles to treat disease rather than prevent disease, and to determine whether the route of administration affected the development of disease. Mice were immunized at day 0 with PLP139-151 and an adjuvant. Mice normally have maximal clinical scores at day 12-14. In this model, the mice were treated at day 10 with the PLG-PLP139-151 particles or with control PLG-OVA323-339 particles either via intravenous (iv) administration, intraperitoneal (ip) administration, subcutaneous (sc) administration, or orally. […] This is in contrast to animals treated with PLP139-151 polystyrene particles, whereby >70% of animals where observed to die from anaphylaxis.

[5] = test system: PLP139-151/CFA-induced EAE; test: Anaphylaxis on iv injection during EAE remission; assay type: in vivo, SJL/J mice; details: iv on day 21 (remission) relative to disease induction
Method: EAE was induced in six to eight week old female SJL/J mice by subcutaneous injection of PLP139-151 in CFA, and development of clinical disease was monitored and recorded (FIG. 5B). On day 21 relative to disease induction, mice were given iv injections of soluble PLP139-151 (clear squares), soluble OVA323-339 (clear circles), or the same peptides coupled to PLG nanoparticles (solids). Temperature of animals was monitored and recorded every 10 minutes for 1 hour following injection (FIG. 5A).

[6] = test system: adoptive EAE (PLP139-151-activated blasts); test: Therapeutic tolerance in adoptive transfer (and active) EAE; assay type: in vivo, SJL/J mice
Method: Experiments were conducted during development of embodiments of the present invention to investigate a second model of active disease termed adoptive transfer. Rather than immunizing the animals with the peptide, the lymphocytes from the spleen of mice with active disease were transferred to a recipient, who would subsequently develop disease. Experiments were conducted during development of embodiments of the present invention to characterize the ability of the PLG nanoparticles to deactivate the adoptively transferred activated effector cells.
Therapeutic tolerance induced by PLP139-151-PLG particles was compared in active and adoptive EAE. Adoptive EAE was induced in six to eight-week old female SJL/J mice by adoptive transfer of 2.5×10^6 PLP139-151-activated blasts. Mice were injected iv with PLP139-151 (squares) or OVA323-339 (circles) peptide coupled to 500 nm PLG nanoparticles 2 days (FIG. 14A), 14 days (FIG. 14C), 18 days (FIG. 14E), or 21 days (FIG. 14F) following disease induction. Clinical disease scores were compared to those following treatment with antigen-coupled splenocytes (FIG. 14A). Brain and spinal cord were collected from PLP139-151- or OVA323-339-tolerized mice for histological analysis on day 42. Sections from mice from panel A were stained for PLP protein and CD45 (FIG. 14B).
Mice were injected iv with PLP139-151-SP, PLP139-151-PLG, or OVA323-339-SP, or OVA323-339-PLG peptide coupled to 500 nm nanoparticles 10 days (FIG. 15A) or 2 days (FIG. 15B) following disease induction and the mean clinical score was determined.
SJL/J mice were injected i.v. with 500 nm PLG nanoparticles coupled with PLP139-151 (squares) or OVA323-339 (circles) 2 days following EAE induction by adoptive transfer. At the peak of disease (day 14) brains and spinal cords were removed and the number of lymphocytes (FIG. 16B), APCs (FIG. 16C), microglia (FIG. 16D), peripheral dendritic cells (FIG. 16E), myeloid dendritic cells (FIG. 16F) and macrophages (FIG. 16G) were enumerated by flow cytometry. The gating strategy for these populations is depicted in (FIG. 16A). CNS cell preparations were stimulated with PMA and ionomycin for 5 h prior to intracellular staining for IL-17A and IFN-γ (FIG. 16H).
To test the effect of treatment with an anti-PD-1 antibody on PLP139-151 induced tolerance in mice with adoptive EAE, on Day 0, mice received 3×10^6 PLP139-151 activated T-cell blasts via intravenous administration. On Day 2, they received PLP139-151 or OVA323-339 encapsulated in PLG particles via intravenous administration with either PBS or an anti-PD-1 antibody. On days 4, 6, 8, 10, and 12 all animals received either 250 μg anti-PD-1 antibody or PBS. […]

[7] = test system: OVA/Alum pre-sensitized mice; test: Anaphylaxis-induced temperature drop in OVA/Alum pre-sensitized animals; assay type: in vivo; details: iv on day 28; within 1 hour of delivery
Method: Due to the presence of active disease, anaphylaxis to the antigens is a concern, which could result in immediate mortality, and has been described with polystyrene bound particles. Anaphylaxis is associated with a significant drop in body temperature. To test whether intravenous administration of OVA-PLG induces an anaphylaxis-induced temperature drop in pre-sensitized animals, mice were immunized at day 0 with 10 μg OVA/Alum via intraperitoneal injection. On day 14, the mice were again immunized with 10 μg OVA/Alum via intraperitoneal injection, and then tolerized with OVA-PLG administered intravenously on day 21. On day 28, the mice were then tolerized with either OVA-PLG particles or OVA via intravenous administration.

Molecule: BSA coupled PLG particles: BSA coupled PLG particles (control) [reference compound]
- percentage of mice that did not develop diabetes over 300 days [1]: 22.7%

Molecule: OVA323-339-PLG: control peptide OVA323-339 coupled to PLG particles (KISQAVHAAHAEINEAG; also: coupled to PLG particles; UniProt P01012 323-339, looked up, fragment) [reference compound]
- staining for CD45, CD4, and CD11b in spinal cord ([2]; tissue retrieved at day 40): positive staining
- clinical score (disease induction) [3]: did not prevent disease induction
- Th1 and Th17 responses (CPM, IL-17, GM-CSF, IFN-γ, IL-10, IL-4) (Th1 and Th17 responses): inhibited the Th1 and Th17 responses

Molecule: PLP139-151 polystyrene particles: PLP139-151 bound to polystyrene particles (CHCLGKWLGHPDK; cysteine pairing not given here; also: bound to polystyrene particles; UniProt P60202 139-151, looked up, fragment) [reference compound]
- animals observed to die from anaphylaxis ([4]; mouse, in vivo): > 70%

Molecule: PLP139-151-PLG: immunodominant proteolipid protein PLP139-151 epitope coupled to 500 nm PLG nanoparticles
- mean clinical scores ([4]; administered intravenously, at most time points): 0
- efficiency of tolerance by route of administration ([4]; treated at day 10, iv, ip, sc or oral): most efficient when the PLG-PLP139-151 particles are administered either intravenously or intraperitoneally
- blood brain barrier (BBB) disruption and macrophage activation in the spinal cord ([2]; in vivo imaging (Angiosense, prosense)): inhibits blood brain barrier (BBB) disruption and macrophage activation
- immune cell infiltration, inflammation and demyelination of the spinal cord ([2]; tissue retrieved at day 40): inhibits cervical spinal cord inflammation and demyelination; also recorded: reduction in immune cell infiltration within the spinal cord
- staining for CD45, CD4, and CD11b in spinal cord ([2]; tissue retrieved at day 40): minimal staining
- anaphylaxis-associated mortality [5]: does not result in any anaphylaxis-associated mortality
- clinical scores between days 20 and 30 ([3]; 500 nm particles given on day −7, days 20 to 30): under 1
- clinical score (disease induction) ([3]; listed as PLG-PLP139-151): specifically prevented EAE development
- clinical score (disease induction) ([3]; listed as PLP139-151-PLGA): 0
- mean clinical score with anti-CD25 antibody compared with control IgG antibody ([3]; anti-CD25 on Day −9, particles plus antibody on Day −7): greater mean clinical score
- delayed-type hypersensitivity (DTH) responses to immunizing PLP139-151 epitope ([3]; prophylactic treatment on day −7): lack of delayed-type hypersensitivity (DTH) responses
- induction of R-EAE by type of particle (mean clinical score, mean cumulative score) ([3]; treated on day −7, N=5 per group): more effective in down-regulating induction of R-EAE
- tolerance induction (mean clinical score) in active and adoptive EAE ([6]; 500 nm particles iv after disease induction (10 days active, 2 days adoptive)): tolerance is induced; also recorded: reduced disease; also recorded: induces tolerance
- infiltration of central nervous system immune cells ([6]; iv 2 days after adoptive transfer, brains and spinal cords at day 14, flow cytometry): drastically reduced
- mean clinical score ([6]; treated at day 2, all but two time points through day 40): 0
- mean clinical score at the other two time points ([6]; treated at day 2, through day 40): 0.25

Molecule: insulin coupled PLG particles: insulin coupled PLG particles
- percentage of mice that did not develop diabetes over 300 days [1]: 69.6%

B1: soluble OVA: soluble ovalbumin given intravenously (protein, UniProt P01012 2-386, looked up)
Ovalbumin: GSIGAASMEFCFDVFKELKVHHANENIFYCPIAIMSALAMVYLGAKDSTRTQINKVVRFDKLPGFGDSIEAQCGTSVNVHSSLRDILNQITKPNDVYSFSLASRLYAEERYPILPEYLQCVKELYRGGLEPINFQTAADQARELINSWVESQTNGIIRNVLQPSSVDSQTAMVLVNAIVFKGLWEKAFKDEDTQAMPFRVTEQESKPVQMMYQIGLFRVASMASEKMKILELPFASGTMSMLVLLPDEVSGLEQLESIINFEKLTEWTSSNVMEERKIKVYLPRMKMEEKYNLTSVLMAMGITDVFSSSANLSGISSAESLKISQAVHAAHAEINEAGREVVGSAEAGVDAASVSEEFRADHPFLFCIKHIATNAVLFFGRCVSP
- body temperature [7]: decrease in temperature
